The target of assay [1] is T1, Glycogen synthase kinase 3 (Rattus norvegicus, UniProt P18266).
T1 construct: made in house; host or cells: Sf9 insect cells
Nature of the assay: Inhibitory activity in respect of GSK-3. It counts as biochemical. Conditions: GS-1 peptide substrate, 15 μM ATP, 30 minutes at 30° C. As for the experimental part: Glycogen synthase kinase 3 was purified starting from Sf9 cells transfected as described in Eur. J. Biochem., 1992, 305-311. The reaction mixture comprises, in a final volume of 30 μl: 1 mg/ml of BSA, 10 mM DTT, 6.7 μM GS-1 peptide as substrate, 15 μM [γ-^32P]ATP (3000 Ci/mmol, 1 mCi/ml), 10 mM MgCl2, 1 mM EGTA, 25mM Tris-HCl pH=7.5, 50 μg/ml of heparin, and the inhibitor at a given concentration. After 30 minutes at 30° C., 25 μl of the mixture are deposited on Whatman® P81 phosphocellulose paper filters, which are then washed 5 times with 10 ml of phosphoric acid (10 ml/l). The radioactivity of the filters is then counted in the presence of 1 ml of scintillation liquid. The IC50 values are estimated from dose-response curves.

The test system of assay [2] is CDK1/cyclin B. Put plainly: Inhibitory activity in respect of CDK-1. The class given is biochemical, starfish (Marthasterias glacialis). The conditions noted are these: histone H1 substrate, 15 μM ATP, 10 minutes at 30° C. Here is the method:
The enzyme was purified from a starfish (Marthasterias glacialis) oocyte homogenate at M phase as described in Eur. J. Biochem, 1997, 243, 527-536 and J. Biol. Chem.,1999, 274, 11977-11986. The reaction mixture comprises, in a volume of 30 μl: 1 mg/ml of histone H1 as substrate, 15 μM [γ-^32P]ATP (3000 Ci/mmol, 1 mCi/ml), 15 mM MgCl2, 60 mM β-glycerophosphate, 15 mM p-nitrophenylphosphate, 25 mM MOPS pH=7.2, 5 mM EGTA, 1 mM DTT, 1 mM sodium vanadate, and the inhibitor at a given concentration. After 10 minutes' incubation at 30° C., 25 μl of the reaction mixture are removed and treated as described above in the GSK-3 protocol. The IC50 values are estimated from dose-response curves.

For assay [3], the target named is CDK5/p25 complex (Homo sapiens, UniProt Q00535). Put plainly: Inhibitory activity in respect of CDK5. The class given is biochemical. Conditions: CDK5 activated by p25 (1/1 mixture), measured as for CDK1/cyclin B. As for the experimental part:
CDK5 was expressed in E. coli in the form of a GST (Glutathione-S-transferase) fusion protein and purified on a glutathione-agarose affinity column. CDK5 is then activated by p25 (1/1 mixture), prepared in the same manner. The enzymatic activity of the CDK5/p25 complex is measured as described above for CDK1/cyclin B. The IC50 values are estimated from dose-response curves.

Structures are written as SMILES. A value given as a limit tells only on which side of the number the result lay.

T1 sequence (P18266 whole entry): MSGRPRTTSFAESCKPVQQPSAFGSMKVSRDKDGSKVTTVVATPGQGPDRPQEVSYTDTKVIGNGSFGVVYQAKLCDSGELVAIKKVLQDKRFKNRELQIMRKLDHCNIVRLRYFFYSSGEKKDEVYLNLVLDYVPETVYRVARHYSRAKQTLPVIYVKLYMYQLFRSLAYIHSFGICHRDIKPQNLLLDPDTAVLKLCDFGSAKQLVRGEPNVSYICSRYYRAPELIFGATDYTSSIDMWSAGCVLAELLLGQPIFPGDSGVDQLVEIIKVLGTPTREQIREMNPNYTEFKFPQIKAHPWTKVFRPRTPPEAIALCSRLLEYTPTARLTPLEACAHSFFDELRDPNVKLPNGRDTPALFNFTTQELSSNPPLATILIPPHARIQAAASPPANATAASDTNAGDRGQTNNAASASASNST
CDK5/p25 complex, sequence (Q00535 whole entry, species assumed, the tested form may be a part): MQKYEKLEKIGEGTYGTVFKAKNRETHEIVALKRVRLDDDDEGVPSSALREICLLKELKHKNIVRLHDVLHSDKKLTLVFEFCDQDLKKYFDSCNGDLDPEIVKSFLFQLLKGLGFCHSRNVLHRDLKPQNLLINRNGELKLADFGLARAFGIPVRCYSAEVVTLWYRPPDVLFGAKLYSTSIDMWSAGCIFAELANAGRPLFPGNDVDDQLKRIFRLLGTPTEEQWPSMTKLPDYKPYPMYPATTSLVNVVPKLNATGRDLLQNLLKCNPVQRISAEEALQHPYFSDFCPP
CDK5/p25 complex, sequence (Q15078 99-307 partner limits assumed, species assumed): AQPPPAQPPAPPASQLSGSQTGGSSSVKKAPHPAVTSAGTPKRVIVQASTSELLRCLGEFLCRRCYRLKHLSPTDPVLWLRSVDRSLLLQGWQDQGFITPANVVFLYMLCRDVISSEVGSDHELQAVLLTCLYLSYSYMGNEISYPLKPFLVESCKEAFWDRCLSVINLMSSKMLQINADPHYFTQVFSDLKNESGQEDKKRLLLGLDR

One may read the IC50 as the concentration that inhibits the measured activity by half. Consider `CO[C@H]1[C@H](O)[C@@H](O)[C@H](n2c3ccc(CO)cc3c3c4c(c5c6cc(CO)ccc6[nH]c5c32)C(=O)NC4=O)O[C@@H]1CO` [Example 1, 3,9-bis(hydroxymethyl)-1 2-(4-O-methyl-β-D-glucopyranosyl)-12,13-dihydro-5H-indolo[2,3-a]pyrrolo[3,4-c]carbazole-5,7(6H)-dione], for which the IC50 in assay [1] is 0.03 µM; in assay [2] it was more than 5 µM; in assay [3], more than 5 µM.

The record behind these values is patent US20040242508A1, “Novel hydroxyalkyl indolocarbazole derivatives, preparation method and pharmaceutical compositions containing the same” (priority 2001, published 2004).
